Like-named read-outs stand apart in the source and are kept apart here.
How the values were obtained:
[1] = system: rats; conditions: intravenous; cited from earlier work
[2] = system: female Fisher 344 rats bearing rat mammary adenocarcinoma 13762; assay: Effect of creatine compounds on glucose levels in rats bearing tumors (i.v., days 4-8 and 14-18); type: in vivo; conditions: for Glucose Levels: i.v. days 4-8 and 14-18
Method: Two creatine compounds, creatine phosphate and cyclocreatine, were injected intravenously into tumor bearing rats, and the level of glucose in the rats was monitored. Beta guanidino propionic acid, also was administered. […] There was no specific reason for using tumor bearing rats, except convenience because the antitumor activity of these compounds also was being studied. The presence of the tumors should not have any effect on the ability of these compounds to regulate glucose levels. The rats carrying the tumors were described by us previously (see, […] et al., Cancer Chemother. Pharmacol, 35: 411-416, 1995). The schedule and dose selected in these experiments was based on prior experience working with this class of compounds as anticancer or antiviral chemotherapeutic agents. The rat mammary adenocarcinoma 13762 was implanted in the female Fisher 344 rats on day zero. The creatine compounds were administered intravenously on days 4-8 and days 14-18. The amounts used were 1 gm/kg of cyclocreatine, 0.93 gm/kg for beta guanidino propionic acid, and 2.32 gm/kg for creatine phosphate. […] Plasma glucose levels were measured at around 11 a.m., by taking a drop of blood from the animals and testing glucose levels using a commercial kit ([…] bG, Boehringer Mannheim). For animals that were treated with drugs, the treatment was around 9 a.m., and bleeding was also at around 11 a.m. To examine more closely what occurred in the above two experiments, the average readings of glucose levels from experiments one and two were taken in the following time intervals post drug treatment: Days 2-3, Days 4-8, Days 8-12, Days 14-18, Day 15 and Days 19-22.

[3] = system: normal animals and a model for non-insulin dependent diabetes mellitus; conditions: cited from earlier work
[4] = in vivo; cited from earlier work

Compound	Glucose Levels [1]	insulin release [1]	Glucose Levels ([2]; Example 1)	Glucose Levels ([2]; Example 2 (repeat))	effects on glucose level ([2]; average of experiments one and two)	Glucose Levels ([3]; large amounts for several weeks)	Glucose Levels ([3]; model for non-insulin dependent diabetes mellitus)	Glucose Levels ([3]; normal animals)	hypoglycemic effect [4]	undesirable side effects [4]
N=C(N)NCCC[C@H](N)C(=O)O [Arginine]	did not affect glucose levels	stimulated insulin release	–	–	–	–	–	–	–	–
N=C(N)NCCC(=O)O [beta guanidino propionic acid]	did not affect glucose levels	stimulated insulin release	Minimal changes in glucose levels	minimal effect	< 15%	not to affect glucose levels	had an effect on glucose levels	not to affect glucose levels	–	–
Augmentin	–	–	–	–	–	–	–	–	produced hypoglycemia	hypertension and circulatory collapse
